According to ChEMBL document CHEMBL4219072, “Enhancing the anti-biofilm activity of 5-aryl-2-aminoimidazoles through nature inspired dimerisation” (Bioorg Med Chem, 2018):

How the values were obtained:
Salmonella typhimurium [1] = experiment: Antibiofilm activity against Salmonella typhimurium ATCC 14028 after 24 hrs by crystal violet staining based assay; assay type: functional, organism-based, Salmonella enterica subsp. enterica serovar Typhimurium; conditions: Salmonella enterica, ATCC 14028, 24 h
Pseudomonas aeruginosa = experiment: Antibiofilm activity against Pseudomonas aeruginosa PA14 after 24 hrs by crystal violet staining based assay; assay type: functional, organism-based; conditions: PA14, 24 h
Escherichia coli [2] = experiment: Antibiofilm activity against Escherichia coli TG1 after 24 hrs by crystal violet staining based assay; assay type: functional, organism-based; conditions: TG1, 24 h
Staphylococcus aureus [3] = experiment: Antibiofilm activity against Staphylococcus aureus SH1000 after 48 hrs by crystal violet staining based assay; assay type: functional, organism-based; conditions: SH1000, 48 h
Salmonella typhimurium [4] = experiment: Inhibition of planktonic growth of Salmonella typhimurium ATCC 14028 after 24 hrs; assay type: organism-based, Salmonella enterica subsp. enterica serovar Typhimurium; conditions: Salmonella enterica, ATCC 14028, 24 h
Escherichia coli [5] = experiment: Inhibition of planktonic growth of Escherichia coli TG1 after 24 hrs; assay type: organism-based; conditions: TG1, 24 h
Staphylococcus aureus [6] = experiment: Inhibition of planktonic growth of Staphylococcus aureus SH1000 after 48 hrs; assay type: organism-based; conditions: SH1000, 48 h

Row | IC50 (Salmonella typhimurium [1]) [µM] | IC50 (Pseudomonas aeruginosa) [µM] | IC50 (Escherichia coli [2]) [µM] | IC50 (Staphylococcus aureus [3]) [µM] | SMILES | IC50 (Salmonella typhimurium [4]) [µM] | IC50 (Escherichia coli [5]) [µM] | IC50 (Staphylococcus aureus [6]) [µM]
1 | 11.4 | 11.1 | 25.4 | 24.4 | Nc1ncc(-c2ccc(F)cc2)n1CCCCn1c(-c2ccc(F)cc2)cnc1N | 50 | 77.3 | 27
2 | 2.9 | 7.1 | 7.2 | 23.7 | Nc1ncc(-c2ccc(F)cc2)n1CCCCCCCn1c(-c2ccc(F)cc2)cnc1N | 50 | > 100 | 34
3 | 1.7 | 1.1 | 2.3 | 5.5 | Nc1ncc(-c2ccc(Br)cc2)n1CCCCCCCn1c(-c2ccc(Br)cc2)cnc1N | > 400 | > 400 | 8.02
4 | 5.3 | 3.1 | 12.3 | 180 | Nc1ncc(-c2ccc(Cl)cc2)n1CCCCn1c(-c2ccc(Cl)cc2)cnc1N | 64 | 16.6 | 130
5 | 2 | 1.3 | 1.1 | 6.1 | Nc1ncc(-c2ccc(Cl)cc2)n1CCCCCCCCn1c(-c2ccc(Cl)cc2)cnc1N | 47.8 | 2.8 | 3.9
6 | 4 | 6.1 | 6.3 | 7.4 | Nc1ncc(-c2ccc(Br)cc2)n1CCCCCn1c(-c2ccc(Br)cc2)cnc1N | 35.9 | 6.7 | 8.76

Second part, the compound before the results:

Row | SMILES | IC50 (Salmonella typhimurium [1]) [µM] | IC50 (Pseudomonas aeruginosa) [µM] | IC50 (Escherichia coli [2]) [µM] | IC50 (Staphylococcus aureus [3]) [µM] | IC50 (Salmonella typhimurium [4]) [µM] | IC50 (Escherichia coli [5]) [µM] | IC50 (Staphylococcus aureus [6]) [µM]
7 | Nc1ncc(-c2ccccc2)n1CCCCCCCCn1c(-c2ccccc2)cnc1N | 16.1 | 8.7 | 2.9 | 22.2 | > 400 | 6.13 | 15.3
8 | Clc1ccc(-c2cnc(NCCCCNc3ncc(-c4ccc(Cl)cc4)[nH]3)[nH]2)cc1 | 12.3 | 13 | 9.3 | 200 | 41.6 | 31.6 | 158
9 | Nc1ncc(-c2ccccc2)n1CCCn1c(-c2ccccc2)cnc1N | 15.3 | 25.2 | 26.6 | 0.4 | 147 | 62.4 | 572
10 | Brc1ccc(-c2cnc(NCCCCNc3ncc(-c4ccc(Br)cc4)[nH]3)[nH]2)cc1 | 13.2 | 11.2 | 7.2 | 300 | > 800 | > 100 | 145
11 | c1ccc(-c2cnc(NCCCCCCCNc3ncc(-c4ccccc4)[nH]3)[nH]2)cc1 | 12.6 | 4.6 | 11.8 | 400 | > 800 | 12.9 | 689
